# Measurements from patent US20230337677A1, “ARYL AND PYRIDYL AMIDE PESTICIDES AND COMPOSITIONS THEREOF” (University of Florida Research Foundation, Incorporated, priority 2019, published 2023).
# Entries after “also recorded” stand apart in the source; their conditions may differ. Where two headings read alike, the source gives them in different places.
# Tests used:
# [1] = tested on: Aedes aegypti mosquitoes, insecticide-susceptible Orlando strain; conditions: for 24h % mortality: Screened at μg/cm^2
# [2] = tested on: Aedes aegypti mosquitoes, insecticide-susceptible Orlando strain; type: in vivo; conditions: for 1 h % Repellency, 100 μg/cm^2: screened at 100 μg/cm^2, strain not given; for 1 h Repellency EC50, μg/cm^2: (OR); for knockdown in 1 hr repellency test (XXkd = number of insects incapacitated out of 16 females): 100 μg/cm^2; for 1h % repellency: Screened at μg/cm^2
# Protocol: The tubes as shown were held horizontally on the bench.
# For assessing behavioral repellency (FIG. 1), Aedes aegypti mosquitoes were used from the insecticide-susceptible Orlando strain and the pyrethroid-resistant Puerto Rico strain. Sixteen female mosquitoes were transferred to a glass tube (12.5 cm long, 2.5 cm outer diameter) with the ends covered with netting. Each compound was dissolved in 1 mL of acetone and serial dilutions ranging from 30-0.01 μg/ml were made. Circular filter papers (5 cm^2) were saturated with 50 μL of each concentration and allowed 10 min for solvent evaporation. The filter papers were then placed in clear conical polypropylene caps and fixed to the end of the glass tubes. The netting prevented mosquito contact with the filter paper. The tubes were then aligned with a mark denoting the midline and the proportion of mosquitoes on the chemically treated side was scored for up to 60 min. At the end of the test, the tube was placed in a cage and the ability of the mosquitoes to fly out of the tube was assessed for 30 min. […] This post-test evaluated whether any non-responding mosquitoes (not repelled) resulted from intoxication or disorientation from the test chemical. For assessment of lethality, insects were held for 24 hr under constant exposure in glass tubes having treated filter papers.
# Compounds were first screened at 100 μg/cm^2 for repellency and 24 h mortality.
# [3] = tested on: Aedes aegypti strain Orlando (sensitive); experiment: Topical toxicity (24 hour mortality), Ae. aegypti Orlando; type: in vivo; conditions: topical application, 24 h mortality, female adults, susceptible Orlando strain
# Protocol: (§1) The Aedes aegypti strains Orlando (sensitive) as well as the Puerto Rico (PR, resistant to permethrin) were used. The Anopheles gambiae (G3 sensitive strain, as well as Akron kdr (Akdr) strain, resistant to pyrethroids were also assessed. The larvae were provided by the USDA, Gainesville Fl, and raised in a pan with tap water maintained at 28° C. Larvae were fed a ground liver and yeast mixture, and pupae were placed in emergence cages. Adults were held at 28° C. and provided with cotton balls soaked in 10% sugar water for rearing and for all bioassays.
# (§2) Female adults from 3 to 6 days were used for the experiments. The drug was dissolved in ethanol and then applied with a micro-applicator on the thorax, between the legs: 200 nL of drug per female mosquito, with different concentrations of the drug; 10 mosquitos were treated together per concentration per replicate, and put together in a small container with free access to sweet water. Mortality, i.e. no visible movement, was assessed 24 hours after treatment. Every compound was assessed on at least 3 different cohorts of mosquitoes, and the LD50 values and slopes were determined with Probit analysis, corrected with Abbott's formula.
# [4] = tested on: Anopheles gambiae G3 sensitive strain; experiment: Topical toxicity (24 hour mortality), An. gambiae G3; type: in vivo; conditions: topical application, 24 h mortality, female adults, susceptible strain G3
# Protocol: as §1, §2
# [5] = tested on: Anopheles gambiae Akron kdr (Akdr) strain, resistant to pyrethroids; experiment: Topical toxicity (24 hour mortality), An. gambiae Akdr; type: in vivo; conditions: topical application, 24 h mortality, female adults, pyrethroid-resistant Akdr strain
# Protocol: as §1, §2
# [6] = screened at 100 μg/cm^2, 24 h, strain not given
smiles,measurement,setting,value
CCOC(=O)Nc1ccccc1C(F)(F)F [GMR020],"24 h % Mortality, 100 μg/cm^2",[1]; [6],9%
same,"1 h % Repellency, 100 μg/cm^2",[2],16%
C=CC(=O)Nc1ccccc1N [GMR022],"24 h % Mortality, 100 μg/cm^2",[1]; [6],16%
same,"1 h % Repellency, 100 μg/cm^2",[2],−8%
O/N=C(\Nc1cc(Cl)nc(C(F)(F)F)c1)C(F)(F)C(F)(F)C(F)(F)F [GMR105],"24 h % Mortality, 100 μg/cm^2",[1]; [6],21%
same,"1 h % Repellency, 100 μg/cm^2",[2],24%
O=C(Nc1ccccc1OC(F)(F)F)C(F)(F)C(F)(F)C(F)(F)F [GMR129],Ae. aegypti OR LD50,[3],>6000 ng/mg
same,An. gambiae G3 LD50,[4],>1000 ng/mg
same,An. gambiae AKDR LD50,[5],~1000 ng/mg
same,"1 h % Repellency, 100 μg/cm^2",[2],34%
CCC(=O)Nc1c(Cl)cncc1Cl [GMR131],"24 h % Mortality, 100 μg/cm^2",[1]; [6],6%
same,"1 h % Repellency, 100 μg/cm^2",[2],−4%
CC(C)CC(=O)Nc1cc(F)c(F)c(F)c1 [GMR141],"24 h % Mortality, 100 μg/cm^2",[1]; [6],19%
same,"1 h % Repellency, 100 μg/cm^2",[2],16%
CCC(=O)Nc1cc(F)c(F)c(F)c1 [GMR143],"24 h LC50, μg/cm^2","[1]; 24 h, LC50 (OR)",95 μg/cm^2
same,"24 h % Mortality, 100 μg/cm^2",[1]; [6],53%
same,"1 h Repellency EC50, μg/cm^2",[2],23 μg/cm^2
same,"1 h % Repellency, 100 μg/cm^2",[2],88%
CCCC(=O)Nc1cc(F)c(F)c(F)c1 [GMR144],"24 h % Mortality, 100 μg/cm^2",[1]; [6],38%
same,"1 h % Repellency, 100 μg/cm^2",[2],62%
COCc1c(F)c(F)c(COC(=O)[C@@H]2[C@@H](C=C(Cl)Cl)C2(C)C)c(F)c1F [GMR146],"24 h % Mortality, 100 μg/cm^2",[1]; in vivo,100%
same,"24 h LC50, μg/cm^2",[1]; in vivo,1 μg/cm^2
same,knockdown in 1 hr repellency test (XXkd = number of insects incapacitated out of 16 females),[2],15
CCCCCCCCCC(=O)Nc1ccccc1OC(F)(F)F [GMR184],"24 h % Mortality, 100 μg/cm^2",[1]; [6],2%
same,"1 h % Repellency, 100 μg/cm^2",[2],−8%
O=C(Nc1cc(F)cc(F)c1)C(F)(F)C(F)(F)F [GMR188],"24 h LC50, μg/cm^2","[1]; 24 h, LC50 (OR)",4.9 μg/cm^2
same,"24 h % Mortality, 100 μg/cm^2",[1]; [6],81%
O=C(Nc1ccc(F)cc1)C(F)(F)C(F)(F)F [GMR189],"24 h LC50, μg/cm^2","[1]; 24 h, LC50 (OR)",35.3 μg/cm^2
same,"24 h % Mortality, 100 μg/cm^2",[1]; [6],94%
same,"1 h Repellency EC50, μg/cm^2",[2],4.5 μg/cm^2
same,"1 h % Repellency, 100 μg/cm^2",[2],42%
O=C(CCl)Nc1cccc(C(F)(F)F)c1 [MTFI-2-2A],"24 h % Mortality, 100 μg/cm^2",[1]; [6],3%
same,"1 h % Repellency, 100 μg/cm^2",[2],50%
C=CCCCC(=O)Nc1cc(C(F)(F)F)cc(C(F)(F)F)c1 [MTFI-3-1C],"24 h % Mortality, 100 μg/cm^2",[1]; [6],0%
same,"1 h % Repellency, 100 μg/cm^2",[2],38%
O=C(CCC1CCCCC1)Nc1cc(C(F)(F)F)cc(C(F)(F)F)c1 [MTFI-3-1D],"24 h % Mortality, 100 μg/cm^2",[1]; [6],7%
same,"1 h % Repellency, 100 μg/cm^2",[2],6%
O=C(Nc1cc(C(F)(F)F)cc(C(F)(F)F)c1)C(F)(F)F [MTFI-3-1G],"24 h % Mortality, 100 μg/cm^2",[1]; in vivo,100%
same,"24 h LC50, μg/cm^2",[1]; in vivo,16 μg/cm^2
same,knockdown in 1 hr repellency test (XXkd = number of insects incapacitated out of 16 females),[2],3
O=C(CCC1CCCCC1)Nc1ccccc1C(F)(F)F [MTFI-3-2F],"24 h % Mortality, 100 μg/cm^2",[1]; [6],25%
same,"1 h % Repellency, 100 μg/cm^2",[2],18%
O=C(Nc1cc(F)c(F)c(F)c1F)C(F)(F)F [MTFI-5-4B],"24 h % Mortality, 100 μg/cm^2",[1]; [6],0%
same,"1 h % Repellency, 100 μg/cm^2",[2],82%
CC(C)(F)C(=O)Nc1ccccc1C(F)(F)F [MTFI-5-5A],"24 h % Mortality, 100 μg/cm^2",[1]; [6],3%
same,"1 h % Repellency, 100 μg/cm^2",[2],82%
same,"vapor repellency / mortality, statement in words (Example 8)",[2]; structure-activity analysis of Table 2,reduced repellency; also recorded: little to no activity
O=C(CC1CC1)Nc1ccccc1C(F)(F)F [MTFI-5-5C],"24 h % Mortality, 100 μg/cm^2",[1]; [6],0%
same,"1 h Repellency EC50, μg/cm^2",[2],34 μg/cm^2
same,"1 h % Repellency, 100 μg/cm^2",[2],82%
CC(C)(C)c1cccc(NC(=O)CCl)c1 [MTFI-5-7A],"24 h % Mortality, 100 μg/cm^2",[1]; [6],0%
same,"1 h % Repellency, 100 μg/cm^2",[2],6%
CCCCC(=O)Nc1cccc(OC(F)(F)F)c1 [MTFI-5-9A],"24 h % Mortality, 100 μg/cm^2",[1]; [6],0%
same,"1 h % Repellency, 100 μg/cm^2",[2],50%
CC(C)(C)c1cccc(NC(=O)CCl)c1 [compound 1],24h % mortality,[1]; Table 3B,0%
same,1h % repellency,[2]; Table 3B,6%
O=C(Nc1cc(F)c(F)c(F)c1)C(F)(F)C(F)(F)OC(F)(F)F [compound 51],"24 h LC50, μg/cm^2",[1]; Table 3A,14.94 μg/cm^2
same,24h % mortality,[1]; Table 3A,100%
same,1h EC50 (μg/cm^2),[2]; Table 3A,3.09 μg/cm^2
same,1h % repellency,[2]; Table 3A,100%
